Results taken from article PMC6586795 (Nature Communications, 2019).

Biological target: T1, Drosophila melanogaster dopamine transporter (dDAT) (Drosophila melanogaster, UniProt Q7K4Y6)
T1 construct: gene DAT; Full-length wild-type dDAT with a C-terminal thrombin site and 8 histidine-tag
Test: [3H]nisoxetine saturation binding, scintillation proximity assay on purified dDAT

T1 sequence (Q7K4Y6 whole entry): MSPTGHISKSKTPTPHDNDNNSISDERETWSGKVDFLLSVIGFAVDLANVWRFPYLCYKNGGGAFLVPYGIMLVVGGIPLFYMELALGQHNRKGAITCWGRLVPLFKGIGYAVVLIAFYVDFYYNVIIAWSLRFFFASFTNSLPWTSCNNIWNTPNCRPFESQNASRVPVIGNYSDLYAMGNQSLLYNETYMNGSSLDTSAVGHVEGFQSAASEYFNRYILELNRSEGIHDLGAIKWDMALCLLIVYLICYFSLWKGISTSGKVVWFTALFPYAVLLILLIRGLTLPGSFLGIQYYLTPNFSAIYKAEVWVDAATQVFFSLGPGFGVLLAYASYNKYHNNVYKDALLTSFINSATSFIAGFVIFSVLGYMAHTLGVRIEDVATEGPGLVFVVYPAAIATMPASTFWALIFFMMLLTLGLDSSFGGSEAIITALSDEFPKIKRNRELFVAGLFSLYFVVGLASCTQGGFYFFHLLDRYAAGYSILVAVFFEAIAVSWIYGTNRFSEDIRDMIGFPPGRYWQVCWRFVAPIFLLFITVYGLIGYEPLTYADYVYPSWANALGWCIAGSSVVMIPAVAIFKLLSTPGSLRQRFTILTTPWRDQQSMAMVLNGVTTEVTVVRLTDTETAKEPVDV

Compound `CNCCC(Oc1ccccc1OC)c1ccccc1` (stereo not shown) [nisoxetine] has a Kd of 80 ± 6 nM.
